This note sets out measurements from ChEMBL document CHEMBL4138084, “Structure-activity relationship study of the tumour-targeting peptide A20FMDV2 via modification of Lys16, Leu13, and N- and/or C-terminal functionality” (Eur J Med Chem, 2017).

Active and inactive are the calls of the source. The rule behind the calls is not given here.

Series [1] concerns the target T1, Integrin alpha-V/beta-6 (Homo sapiens, UniProt P06756+P18564). In words: Binding affinity to alphav/beta6 integrin in human A375Pbeta6 cells at 100 nM after 15 mins by flow cytometric analysis relative to biotinylated A20FMDV2. Format: cell-based. A general note: Flow cytometry measures light scatter and fluorescence of single cells or particles in a stream.
Series [2] in a line: Drug uptake in human A375PPuro cells at 1000 nM after 15 mins by flow cytometric analysis. Format: ADME, cell-based. The conditions noted are these: 0.25 h, 1 µM.
Series [3] addresses T1, Integrin alpha-V/beta-6. As to the kind of experiment: Binding affinity to alphav/beta6 integrin in human A375Pbeta6 cells assessed as drug internalization at 100 nM after 15 mins by flow cytometric analysis relative to biotinylated A20FMDV2. The conditions noted are these: 0.25 h, 0.1 µM. Format: ADME, cell-based.
Target sequence in this assay (P06756 31-889 limits assumed): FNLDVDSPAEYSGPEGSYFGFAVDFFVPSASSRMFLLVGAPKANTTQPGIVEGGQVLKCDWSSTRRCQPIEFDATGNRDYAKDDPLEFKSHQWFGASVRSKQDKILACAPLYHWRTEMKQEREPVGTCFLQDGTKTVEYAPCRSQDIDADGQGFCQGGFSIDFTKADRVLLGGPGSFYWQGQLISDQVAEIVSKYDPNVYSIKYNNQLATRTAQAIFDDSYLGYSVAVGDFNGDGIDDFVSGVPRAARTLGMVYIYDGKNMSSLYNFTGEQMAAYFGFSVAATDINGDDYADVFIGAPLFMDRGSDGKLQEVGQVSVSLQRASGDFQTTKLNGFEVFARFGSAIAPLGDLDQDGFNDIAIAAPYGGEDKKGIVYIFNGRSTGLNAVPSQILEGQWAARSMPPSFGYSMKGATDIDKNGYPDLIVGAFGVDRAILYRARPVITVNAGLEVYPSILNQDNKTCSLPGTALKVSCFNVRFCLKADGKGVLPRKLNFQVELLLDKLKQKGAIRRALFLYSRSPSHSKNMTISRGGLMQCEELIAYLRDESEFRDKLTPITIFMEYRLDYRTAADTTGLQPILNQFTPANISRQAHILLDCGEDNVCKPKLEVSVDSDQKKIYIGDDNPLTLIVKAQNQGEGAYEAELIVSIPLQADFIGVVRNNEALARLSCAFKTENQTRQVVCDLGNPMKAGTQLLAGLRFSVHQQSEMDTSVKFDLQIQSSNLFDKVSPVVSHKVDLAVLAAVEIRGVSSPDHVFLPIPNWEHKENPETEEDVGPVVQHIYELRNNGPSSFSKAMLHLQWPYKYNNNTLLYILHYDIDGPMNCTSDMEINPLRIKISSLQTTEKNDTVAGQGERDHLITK
Target sequence in this assay (P06756 891-1048 limits assumed): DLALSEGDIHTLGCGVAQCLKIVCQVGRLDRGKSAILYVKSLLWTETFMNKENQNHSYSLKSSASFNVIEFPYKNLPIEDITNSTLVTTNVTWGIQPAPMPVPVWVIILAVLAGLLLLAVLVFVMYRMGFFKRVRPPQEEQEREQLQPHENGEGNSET
Target sequence in this assay (P18564 22-788 limits assumed): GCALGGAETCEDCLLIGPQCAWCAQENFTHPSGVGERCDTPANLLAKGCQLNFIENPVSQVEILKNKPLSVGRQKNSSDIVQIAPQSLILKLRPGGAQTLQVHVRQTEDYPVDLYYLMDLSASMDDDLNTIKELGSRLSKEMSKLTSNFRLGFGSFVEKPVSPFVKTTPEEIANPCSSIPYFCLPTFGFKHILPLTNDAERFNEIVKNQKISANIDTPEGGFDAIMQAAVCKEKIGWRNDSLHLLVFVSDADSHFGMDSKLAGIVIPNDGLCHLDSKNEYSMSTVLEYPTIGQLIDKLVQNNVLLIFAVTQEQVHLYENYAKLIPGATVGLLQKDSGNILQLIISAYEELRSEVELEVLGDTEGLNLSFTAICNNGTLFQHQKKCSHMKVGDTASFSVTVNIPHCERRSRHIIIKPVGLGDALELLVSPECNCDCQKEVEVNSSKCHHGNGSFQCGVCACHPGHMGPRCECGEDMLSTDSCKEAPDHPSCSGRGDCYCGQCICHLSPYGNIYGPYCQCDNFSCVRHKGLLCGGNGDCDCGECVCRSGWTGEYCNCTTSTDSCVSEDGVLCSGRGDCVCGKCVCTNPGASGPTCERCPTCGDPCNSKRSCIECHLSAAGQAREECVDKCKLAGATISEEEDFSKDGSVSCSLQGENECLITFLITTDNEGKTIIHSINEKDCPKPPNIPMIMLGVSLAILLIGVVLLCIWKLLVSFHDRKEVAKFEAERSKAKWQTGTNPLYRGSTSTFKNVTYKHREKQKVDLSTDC
Series [4] has as its system Integrin alpha-V/beta-1 (Homo sapiens). As to the kind of experiment: Binding affinity alphav/beta1 integrin in human A375PPuro cells at 1000 nM after 15 mins by flow cytometric analysis.
The target in series [5] is Integrin alpha-V/beta-5 (Homo sapiens) (UniProt P06756+P18084). As to the kind of experiment: Binding affinity alphav/beta5 integrin in human A375PPuro cells at 1000 nM after 15 mins by flow cytometric analysis. Format: cell-based.
The target of series [6] is Integrin alpha-V/beta-8 (Homo sapiens) (UniProt P06756+P26012). As to the kind of experiment: Binding affinity alphav/beta8 integrin in human A375PPuro cells at 1000 nM after 15 mins by flow cytometric analysis. Format: cell-based.

Regarding `CCC(CC)[C@H](NC(=O)[C@@H](NC(=O)[C@H](CCC(N)=O)NC(=O)[C@H](CC(C)C)NC(=O)[C@H](CC(=O)O)NC(=O)CNC(=O)[C@H](CCCNC(=N)N)NC(=O)[C@H](CC(C)C)NC(=O)[C@H](CC(N)=O)NC(=O)[C@@H]1CCCN1C(=O)[C@@H](NC(=O)[C@H](CCCCNC(=O)CCCC[C@@H]1SC[C@@H]2NC(=O)N[C@@H]21)NC(=O)[C@@H](N)CC(N)=O)C(C)C)C(C)C)C(=O)N[C@@H](C)C(=O)N[C@@H](CCC(N)=O)C(=O)N[C@@H](CCCCN)C(=O)N[C@H](C(=O)N[C@@H](C)C(=O)N[C@@H](CCCNC(=N)N)C(=O)N[C@H](C(=O)O)[C@@H](C)O)C(C)C`, the fold change (FC) is 0.7 at Integrin alpha-V/beta-6 [1] and 0.52 on Integrin alpha-V/beta-6 [3]. Moreover, the Drug uptake entry in series [2] is recorded as “Not Active”.
Consider `CC(C)C[C@H](NC(=O)[C@H](CC(=O)O)NC(=O)CNC(=O)[C@H](CCCNC(=N)N)NC(=O)[C@H](CC(C)C)NC(=O)[C@H](CC(N)=O)NC(=O)[C@@H]1CCCN1C(=O)[C@@H](NC(=O)[C@H](CCCCNC(=O)CCCC[C@@H]1SC[C@@H]2NC(=O)N[C@@H]21)NC(=O)[C@@H](N)CC(N)=O)C(C)C)C(=O)N[C@@H](CCC(N)=O)C(=O)N[C@H](C(=O)N[C@@H](CC(C)(C)C)C(=O)N[C@@H](C)C(=O)N[C@@H](CCC(N)=O)C(=O)N[C@@H](CCCCN)C(=O)N[C@H](C(=O)N[C@@H](C)C(=O)N[C@@H](CCCNC(=N)N)C(=O)N[C@H](C(=O)O)[C@@H](C)O)C(C)C)C(C)C`, for which the fold change (FC) at Integrin alpha-V/beta-6 [1] turned out to be 0.6; at Integrin alpha-V/beta-6 [3] it was 1.03. Further, in series [2], the Drug uptake result is on record as “Not Active”.
On to `CC(=O)N(C(=O)CN(CCN(CCN(CC(=O)O)CC(=O)O)CC(=O)O)CC(=O)O)[C@@H](CC(N)=O)C(=O)N[C@@H](CCCCNC(=O)CCCC[C@@H]1SC[C@@H]2NC(=O)N[C@@H]21)C(=O)N[C@H](C(=O)N1CCC[C@H]1C(=O)N[C@@H](CC(N)=O)C(=O)N[C@@H](CC(C)C)C(=O)N[C@@H](CCCNC(=N)N)C(=O)NCC(=O)N[C@@H](CC(=O)O)C(=O)N[C@@H](CC(C)C)C(=O)N[C@@H](CCC(N)=O)C(=O)N[C@H](C(=O)N[C@@H](CC(C)C)C(=O)N[C@@H](C)C(=O)N[C@@H](CCC(N)=O)C(=O)N[C@@H](CCCCN)C(=O)N[C@H](C(=O)N[C@@H](C)C(=O)N[C@@H](CCCNC(=N)N)C(=O)N[C@H](C(=O)O)[C@@H](C)O)C(C)C)C(C)C)C(C)C`, for which the fold change (FC) at Integrin alpha-V/beta-6 [1] is 1.48; on Integrin alpha-V/beta-6 [3], 1.05. The Drug uptake result in series [2] is given as “Not Active”.
As to `CCCC[C@H](NC(=O)[C@@H](NC(=O)[C@H](CCC(N)=O)NC(=O)[C@H](CC(C)C)NC(=O)[C@H](CC(=O)O)NC(=O)CNC(=O)[C@H](CCCNC(=N)N)NC(=O)[C@H](CC(C)C)NC(=O)[C@H](CC(N)=O)NC(=O)[C@@H]1CCCN1C(=O)[C@@H](NC(=O)[C@H](CCCCNC(=O)CCCC[C@@H]1SC[C@@H]2NC(=O)N[C@@H]21)NC(=O)[C@@H](N)CC(N)=O)C(C)C)C(C)C)C(=O)N[C@@H](C)C(=O)N[C@@H](CCC(N)=O)C(=O)N[C@@H](CCCCN)C(=O)N[C@H](C(=O)N[C@@H](C)C(=O)N[C@@H](CCCNC(=N)N)C(=O)N[C@H](C(=O)O)[C@@H](C)O)C(C)C`, the values for the fold change (FC) on Integrin alpha-V/beta-6 [1] and at Integrin alpha-V/beta-6 [3] were 1.16 and 1.15, respectively. Besides, in series [2], the Drug uptake result is listed as “Not Active”.
`C=CC[C@H](NC(=O)[C@@H](NC(=O)[C@H](CCC(N)=O)NC(=O)[C@H](CC(C)C)NC(=O)[C@H](CC(=O)O)NC(=O)CNC(=O)[C@H](CCCNC(=N)N)NC(=O)[C@H](CC(C)C)NC(=O)[C@H](CC(N)=O)NC(=O)[C@@H]1CCCN1C(=O)[C@@H](NC(=O)[C@H](CCCCNC(=O)CCCC[C@@H]1SC[C@@H]2NC(=O)N[C@@H]21)NC(=O)[C@@H](N)CC(N)=O)C(C)C)C(C)C)C(=O)N[C@@H](C)C(=O)N[C@@H](CCC(N)=O)C(=O)N[C@@H](CCCCN)C(=O)N[C@H](C(=O)N[C@@H](C)C(=O)N[C@@H](CCCNC(=N)N)C(=O)N[C@H](C(=O)O)[C@@H](C)O)C(C)C`: the fold change (FC) at Integrin alpha-V/beta-6 [1] was 0.58; at Integrin alpha-V/beta-6 [3] it was 0.82. The Drug uptake result in series [2] was “Not Active”.
Turning to `CC(C)C[C@H](NC(=O)[C@H](CC(=O)O)NC(=O)CNC(=O)[C@H](CCCNC(=N)N)NC(=O)[C@H](CC(C)C)NC(=O)[C@H](CC(N)=O)NC(=O)[C@@H]1CCCN1C(=O)[C@@H](NC(=O)[C@H](CCCCNC(=O)CCCC[C@@H]1SC[C@@H]2NC(=O)N[C@@H]21)NC(=O)[C@H](CC(N)=O)NC(=O)CN1CCN(CC(=O)O)CCN(CC(=O)O)CCN(CC(=O)O)CC1)C(C)C)C(=O)N[C@@H](CCC(N)=O)C(=O)N[C@H](C(=O)N[C@@H](CC(C)C)C(=O)N[C@@H](C)C(=O)N[C@@H](CCC(N)=O)C(=O)N[C@@H](CCCCN)C(=O)N[C@H](C(=O)N[C@@H](C)C(=O)N[C@@H](CCCNC(=N)N)C(=O)N[C@H](C(=O)O)[C@@H](C)O)C(C)C)C(C)C`, the result in series [4], in series [5] and in series [6] was inactive. In series [2], the Drug uptake entry was “Not Active”.
As to `CC(C)C[C@H](NC(=O)[C@H](CC(=O)O)NC(=O)CNC(=O)[C@H](CCCNC(=N)N)NC(=O)[C@H](CC(C)C)NC(=O)[C@H](CC(N)=O)NC(=O)[C@@H]1CCCN1C(=O)[C@@H](NC(=O)[C@H](CCCCNC(=O)CCCC[C@@H]1SC[C@@H]2NC(=O)N[C@@H]21)NC(=O)[C@@H](N)CC(N)=O)C(C)C)C(=O)N[C@@H](CCC(N)=O)C(=O)N[C@H](C(=O)N[C@@H](CC(C)C)C(=O)N[C@@H](C)C(=O)N[C@@H](CCC(N)=O)C(=O)N[C@@H](CN)C(=O)N[C@H](C(=O)N[C@@H](C)C(=O)N[C@@H](CCCNC(=N)N)C(=O)N[C@H](C(=O)O)[C@@H](C)O)C(C)C)C(C)C`, the fold change (FC) came to 0.79 on Integrin alpha-V/beta-6 [1] and 0.96 on Integrin alpha-V/beta-6 [3]. Further, in series [2], the Drug uptake entry is recorded as “Not Active”.
